IC50 data for seven molecules are collected here from US12371454B2, “Cyclic peptide compound having Kras inhibitory action” (priority 2019, dated 2025).

Assay [1] concerns the target T1, Kras and SOS1 (biotin-tagged human Kras loaded with GDP, His-tagged human SOS1) (Homo sapiens, UniProt P01116, G12D).
T1 construct: made in house; host or cells: E. coli (stated for Kras only)
In words: Protein-protein interaction inhibition between Kras and SOS1 (KrasGl2D-SOS PPI) using AlphaScreen. The assay is classed as binding. Particulars: AlphaScreen; biotin-tagged human Kras loaded with GDP, His-tagged human SOS1; read-out: KRAS G12D-SOS PPI IC50. A digest of the protocol:
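Donor beads (nickel) hold His-SOS1; acceptor beads (streptavidin) hold biotin-Kras bound to GDP. Signal measured at 520-620 nm following 680 nm excitation.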
A general note: In Alpha technology, singlet oxygen from a donor bead excites a nearby acceptor bead.

The subject of assay [2] is Human pancreatic cancer cell line AsPC-1. In words: Measurement of AsPC-1 cell growth inhibition (AsPC-1 CGI). The class given is cell-based. Particulars: 96 h. The method, boiled down: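 AsPC-1 cells in 15% FBS RPMI-1640 were exposed to test compound for 96 hours at 37° C, with CellTiter-Glo as endpoint.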

Starred links: 1 amine or outer side, 2 acyl side, 3 side chain; linkers in the order of their positions; H or OH if unused. Positions of bridges follow the written chain, without caps; N, C: chain ends. Non-standard residues stand in square brackets, D forms with d. Residues, ends and D or L forms follow the SMILES beside them. *: point of attachment. hPhe(3,5-F2-4-CF3) = N[C@@H](CCc1cc(F)c(C(F)(F)F)c(F)c1)C(=O)O; hPhe(3-Cl-4-CF3) = N[C@@H](CCc1ccc(C(F)(F)F)c(Cl)c1)C(=O)O; X28 = CCCCOc1cc(CC[C@H](N[*:1])C(=O)[*:2])cc(Cl)c1Cl; 3Oxa8azabicyclo(3.2.1)octane = C1CC2COCC1N2*; NMePhe(4-Me) = CN[C@@H](Cc1ccc(C)cc1)C(=O)O; NMePhe(4-F) = CN[C@@H](Cc1ccc(F)cc1)C(=O)O; NMe3Pal = CN[C@@H](Cc1cccnc1)C(=O)O; NMeY = CN[C@@H](Cc1ccc(O)cc1)C(=O)O; NMeCha = CN[C@@H](CC1CCCCC1)C(=O)O; NMeChg = CN[C@H](C(=O)O)C1CCCCC1; NMeI = CC[C@H](C)[C@H](NC)C(=O)O; NMeD = CN[C@@H](CC(=O)O)C(=O)O; NMeL = CN[C@@H](CC(C)C)C(=O)O; NMeNva = CCC[C@H](NC)C(=O)O; NMeV = CN[C@H](C(=O)O)C(C)C; d(β3hA) = C[C@@H](N)CC(=O)O; Azetidin(1-yl) = C1CN(*)C1; NMeA = CN[C@@H](C)C(=O)O; Piperidide = C1CCN(*)CC1; Pyrrolidide = C1CCN(*)C1; Ac5c = NC1(C(=O)O)CCCC1; Aze = O=C(O)[C@@H]1CCN1; CF3 = FC(F)(F)*; Sar = CNCC(=O)O A value given as a limit tells only on which side of the number the result lay.

T1 sequence (P01116 1-188 isoform P01116-2 G12D): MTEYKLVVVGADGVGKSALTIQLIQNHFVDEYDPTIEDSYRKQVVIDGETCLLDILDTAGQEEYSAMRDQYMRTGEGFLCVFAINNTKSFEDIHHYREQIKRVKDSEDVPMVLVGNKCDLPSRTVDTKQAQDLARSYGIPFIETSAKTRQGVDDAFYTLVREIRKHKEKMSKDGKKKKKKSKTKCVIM

In the case of `CCC[C@H]1C(=O)N[C@@H]([C@@H](C)CC)C(=O)N(C)CC(=O)N(C)CC(=O)N(C)[C@@H](Cc2ccc(C)cc2)C(=O)N(C)CC(=O)N[C@@H](CCc2ccc(C(F)(F)F)c(Cl)c2)C(=O)N2CCC[C@H]2C(=O)NC2(CCCC2)C(=O)N(C)[C@@H](C2CCCCC2)C(=O)N(C)[C@H](C(=O)N2C3CCC2COC3)CC(=O)N1C` [Compound 1994] ([NMeNva]I[Sar][Sar][NMePhe(4-Me)][Sar][hPhe(3-Cl-4-CF3)]P[Ac5c][NMeChg][NMeD]-{3Oxa8azabicyclo(3.2.1)octane}; lactam N-11), the IC50 (usually the point on the concentration scale where inhibition reaches its midpoint) is 0.58 nM in assay [1] and 50 to 100 nM in assay [2].
On the same counts, the results for `CC[C@H](C)[C@@H]1NC(=O)[C@H](CC(C)C)N(C)C(=O)C[C@@H](C(=O)N2CCCCC2)N(C)C(=O)[C@H](C(C)C)N(C)C(=O)C2(CCCC2)NC(=O)[C@@H]2CCCN2C(=O)[C@H](CCc2ccc(C(F)(F)F)c(Cl)c2)NC(=O)CN(C)C(=O)[C@H](Cc2ccc(OC(F)(F)F)cc2)N(C)C(=O)CN(C)C(=O)CN(C)C1=O` [Compound 1630] ([NMeL]I[Sar][Sar][NMeY](CF3)[Sar][hPhe(3-Cl-4-CF3)]P[Ac5c][NMeV][NMeD]-Piperidide; lactam N-11) are 6.2 nM and 100 to 500 nM.
On the same counts, the results for `CC[C@H](C)[C@@H]1NC(=O)[C@H](CC(C)C)N(C)C(=O)C[C@@H](C(=O)N(C)C)N(C)C(=O)[C@H]([C@@H](C)CC)N(C)C(=O)C2(CCCC2)NC(=O)[C@H](Cc2cccnc2)N(C)C(=O)[C@H](CCc2ccc(C(F)(F)F)c(Cl)c2)NC(=O)CN(C)C(=O)[C@H](Cc2ccc(C)cc2)N(C)C(=O)[C@@H]2CCN2C(=O)[C@H](C)N(C)C1=O` [Compound 243] ([NMeL]I[NMeA][Aze][NMePhe(4-Me)][Sar][hPhe(3-Cl-4-CF3)][NMe3Pal][Ac5c][NMeI][NMeD]-NMe2; lactam N-11) are 0.43 nM and 20 to 50 nM.
Consider `CCCCOc1cc(CC[C@@H]2NC(=O)CN(C)C(=O)[C@H](CC3CCCCC3)N(C)C(=O)CN(C)C(=O)CN(C)C(=O)[C@H]([C@@H](C)CC)NC(=O)[C@H](C)N(C)C(=O)C[C@@H](C(=O)N3CCCCC3)N(C)C(=O)[C@H](C(C)C)N(C)C(=O)C3(CCCC3)NC(=O)[C@@H]3CCCN3C2=O)cc(Cl)c1Cl` [Compound 2083] ([NMeA]I[Sar][Sar][NMeCha][Sar][X28]P[Ac5c][NMeV][NMeD]-Piperidide; lactam N-11), for which the half-maximal inhibitory concentration (IC50) in assay [1] was 52 nM; in assay [2], above 500 nM.
On the same counts, the results for `CCC[C@H]1C(=O)N[C@@H]([C@@H](C)CC)C(=O)N(C)CC(=O)N(C)CC(=O)N(C)[C@@H](Cc2ccc(C)cc2)C(=O)N(C)CC(=O)N[C@@H](CCc2cc(F)c(C(F)(F)F)c(F)c2)C(=O)N2CCC[C@H]2C(=O)NC2(CCCC2)C(=O)N(C)[C@@H](C2CCCCC2)C(=O)N(C)[C@H](C(=O)N2CCCC2)CC(=O)N1C` [Compound 1197] ([NMeNva]I[Sar][Sar][NMePhe(4-Me)][Sar][hPhe(3,5-F2-4-CF3)]P[Ac5c][NMeChg][NMeD]-Pyrrolidide; lactam N-11) are 0.6 nM and 20 to 50 nM.
Take `CC[C@H](C)[C@@H]1NC(=O)[C@H](CC(C)C)N(C)C(=O)C[C@@H](C)NC(=O)[C@H](C(C)C)N(C)C(=O)C2(CCCC2)NC(=O)[C@@H]2CCCN2C(=O)[C@H](CCc2ccc(C(F)(F)F)c(Cl)c2)NC(=O)CN(C)C(=O)[C@H](Cc2ccc(F)cc2)N(C)C(=O)CN(C)C(=O)CN(C)C1=O` [Compound 1602] (cyclo([Ac5c][NMeV][d(β3hA)][NMeL]I[Sar][Sar][NMePhe(4-F)][Sar][hPhe(3-Cl-4-CF3)]P)): the results for the 50% inhibitory concentration (IC50) in assay [1] and in assay [2] were 6.3 nM and 100 to 500 nM, respectively.
With `CC[C@H](C)[C@@H]1NC(=O)[C@H](CC(C)C)N(C)C(=O)C[C@@H](C(=O)N2CCC2)N(C)C(=O)[C@H](C2CCCCC2)N(C)C(=O)C2(CCCC2)NC(=O)[C@@H]2CCCN2C(=O)[C@H](CCc2ccc(C(F)(F)F)c(Cl)c2)NC(=O)CN(C)C(=O)[C@H](CC2CCCCC2)N(C)C(=O)CN(C)C(=O)CN(C)C1=O` [Compound 437] ([NMeL]I[Sar][Sar][NMeCha][Sar][hPhe(3-Cl-4-CF3)]P[Ac5c][NMeChg][NMeD]-{Azetidin(1-yl)}; lactam N-11), the results for the IC50 in assay [1] and in assay [2] were 0.47 nM and 50 to 100 nM, respectively.
